Literature values as cited in publication PMC2984425, “Safety and pharmacokinetics of novel selective vascular endothelial growth factor receptor-2 inhibitor YN968D1 in patients with advanced malignancies” (BMC Cancer, 2010).

Test system: VEGFR-2
Settings: no reference given; read-out: IC50, inhibitory effect on VEGFR-2; cited from earlier work

Structure (SMILES): N#CC1(c2ccc(NC(=O)c3cccnc3NCc3ccncc3)cc2)CCCC1 [apatinib]
- IC50: 2.43 nM
